These results are taken from paper PMC7156458, “Synthetic biology based construction of biological activity-related library of fungal decalin-containing diterpenoid pyrones” (Nature Communications, 2020).

Series [1] concerns HCT-15. Description: cells. The arrangement: JFCR39 human cancer cell line panel, antiproliferative dose response (optical density), GI50. Conditions: Homo sapiens, HCT-15. Here is the method:
(§1) Initially, we evaluated new DDP analogues for their antiproliferative activities across the panel of 39 human cancer cell lines, JFCR39[50],[51]. […] Purified DDPs was dissolved in DMSO (Specially Prepared Reagent, Nuclease and Protease tested, NACALAI, 09659-14) to prepare 5 mM solutions. The Each DDP solution (5 mM) was used for antiproliferative effects on cancer cell lines (Supplementary Notes 23, 24, 25, 26), biological activity against Drosophila (Supplementary Note 27), anti-HIV assay (Supplementary Note 28) and screening of amyloid Ab42 aggregation inhibitors (Supplementary Notes 29).

Series [2] concerns St-4. Description: cells. To be noted: Homo sapiens, St-4. The arrangement: JFCR39 human cancer cell line panel, antiproliferative dose response (optical density), GI50. Here is the method: as §1
For series [3], the system named is SK-OV-3. Description: cells. The arrangement: JFCR39 human cancer cell line panel, antiproliferative dose response (optical density), GI50. Conditions: Homo sapiens, SK-OV-3. The protocol:
as §1

For series [4], the system named is MKN1. Description: cells. Also noted: JFCR39 human cancer cell line panel, antiproliferative dose response (optical density), GI50. Conditions: Homo sapiens, MKN-1. Here is the method: as §1
The subject of series [5] is MKN-B. Description: cells. Also noted: JFCR39 human cancer cell line panel, antiproliferative dose response (optical density), GI50. The protocol: as §1
The subject of series [6] is NCI-H460. Description: cells. The arrangement: JFCR39 human cancer cell line panel, antiproliferative dose response (optical density), GI50. To be noted: Homo sapiens, NCI-H460. The protocol:
as §1

The nature of series [7]: cytotoxicity in the anti-HIV assay (CC50). The series is classed as cell-based. To be noted: human, MAGI cells (HeLa-CD4-LTR/beta-galactosidase).

Molecules are shown by their SMILES.

As to `C=C1CCC2C3(C)CC(C=C(C)C)OC3CCC2(C)C1Cc1c(OC)oc(C)c(C)c1=O` (stereo not shown) [Compound 23], the 50% growth inhibitory concentration (GI50) in series [1] turned out to be 0.983 µM; in series [2], 12.4 µM; in series [3] it was 10.8 µM; in series [4], 13.2 µM.
For the molecule `C=C1CC[C@H]2[C@]3(C)C[C@H](C=C(C)C)O[C@H]3CC[C@]2(C)[C@@H]1Cc1c(OC)oc(C)c(C)c1=O` [Compound 24], the 50% growth inhibitory concentration (GI50) in series [2] came out at 12.2 µM; in series [3], 10.7 µM; in series [5] it was 1.28 µM; in series [6] it was 0.0901 µM; in series [4], 12.2 µM.
For the molecule `C=C1CC[C@@H]2[C@](C)(CC[C@H]3O[C@H](C=C(C)C)C[C@@]23C)[C@@H]1Cc1c(OC)oc(CO)c(C)c1=O` [Compound 20], the CC50 in series [7] was above 10 µM.

As a reminder, the GI50 is the concentration at which growth is held to half of that of the control. Higher therefore signals lower sensitivity of the cells. A word on the CC50: it is the concentration at which the toxic effect on the cells reaches its halfway point. Read a low CC50 as harm at low concentration.
